Structures can show the parent of a compound that is named as a salt. Marks after values point to notes of the source that are not given here.
Columns and labels:
rat spleen tissue = experiment: Formation of uric acid in spleen tissue under anaerobic conditions, HPLC
Method: Capacity of a hydroxyguanidine (PR5) to sustain the formation of uric acid in tissues. […] Pieces of 0.6 g of rat spleen tissue were incubated in 7.5 ml argon-saturated Tris-Ringer buffer (4 mM KCl, 100 mM NaCl, 2 mM CaCl2, 2 mg/ml glucose and 40 mM TrisHCl, pH 7.4) in 50 ml Erlenmeyer flasks at 37° C., care being taken to maintain an atmosphere of argon above the incubations. As aerobic control served identical incubations, except that the buffers were saturated with air and the incubations performed under air. After 30 min the flasks were opened and the tissues minced to obtain tissue cubes with about 1 mm sides. […] The supernatants were then centrifuged using Ultrafree-MC Biomax-10 Millipore filtration devices at 5000×g for 0.5 hr in order to obtain an essentially particle free preparation which was being kept at −20° C. until analysed for the uric acid content using HPLC.
For analysing the uric acid content the above preparations were thawed and 0.05 ml aliquots were injected onto Waters 2690 Separation Module using a 2.1×250 mm Vydac RP C18, 90A, 201HS1010 column using a linear gradient of 10 mM KH2PO4 (A) and 10 mM KH2PO4 in 50% (v/v) methanol/water (B) (both at pH 4.55 adjusted with phosphoric acid). […] The uric acid peak was eluted after 13 min and was identified and detected according to the spectrum of a standard uric acid reference.

[1] = test system: rat hearts (reperfusion injury); experiment: Reperfusion injury of the heart: coronary artery occlusion/reperfusion arrhythmias; format: in vivo; settings: for Ventricular tachycardia Insidence (%) / Ventricular tachycardia Insidence (number of animals) / Ventricular fibrilation Insidence (%) / Ventricular fibrilation Insidence (number of animals) / Ventricular fibrilation Duration / Ventricular tachycardia Duration / Ventricular fibrilation Duration (s) / Ventricular tachycardia Duration (s): 20 min reperfusion; for Ventricular fibrilation Duration / Ventricular tachycardia Duration / Ventricular fibrilation Duration (s) / Ventricular tachycardia Duration (s): mean ±SEM; for effect on incidence and duration of ventricular tachycardias and fibrillations and on mortality, in words: versus control, p<0.05
Description: Capacity of a hydroxyguanidine (PR5) to afford a tissue protective effect in the heart. […] In this model the coronary arteries of rat hearts were occluded, and after some time reperfusion was allowed to occur. During reperfusion events of cardiac arrhythmias are observed. They are well known to be related to the accumulation of oxygen derived free radicals. These arrhythmias are monitored in the animals treated with PR5 and in control animals either receiving no drug or allopurinol. Allopurinol was used as a control because it is well known from the litterature as an agent capable of preventing the generation of oxygen derived free radicals. In brief, rats were anaesthetised with sodium pentobarbital and ventilated with air using a respirator for small animals at a pressure 15-20 cm H2O and a […] rate of 60 strokes/min. ECG (electrocardiogram) and systemic blood pressure was registered on a Physiograph DMP-4B (Narco Bio-Systems, Houston, USA) using, respectively, a standard lead II and a pressure transducer PR-1500 (Narco Bio-Systems, Houston, USA) contected via a catheter to the left carotid artery. The chest was opened via the fourth intercostal space, the pericardium incised and a sling (4/0 silk Medicor, Budapest, Hungary) was placed around the left coronary artery close to its origin. The silk ligature was passed through a piece of plastic tubing, the chest was partially closed and the animal was allowed to recover for 10 min. PR-5, dissolved in 0.9% NaCl, was then injected i.v. 10 min before the occlusion of the coronary artery at doses 1, 3 or 10 mg/kg body weight. As control served the same volume of 0.9% NaCl. The coronary artery was occluded for a period of 10 min by applying tension to the ligature and pressing the tube onto the heart surface. Reperfusion was initiated by removing the clamp and releasing the tension on the ligature and allowing the perfusion to continue for 20 min. Ventricular ectopic activity was assessed during the 20 min reperfusion period by measuring the duration of ventricular tachycardias and ventricular fibrillations from the ECG curves. The results are shown in Table 2, where the results are presented as mean ±SEM (in seconds) for the total duration of ventricular tachycardias and ventricular fibrillations during the 20 min reperfusion period, (or until eventual death of the animal). The incidence of animals showing ventricular tachycardia and ventricular fibrillation are also given Table 2 as the number of animals showing ventricular tachycardia and ventricular fibrillation. Figures in parenthese relate to incidents expressed in % of the total number of animals.
In Table 2 a star “*” denotes a significant difference from the control at p<0.05 using the appropriate statistical test. Alp=allopurinol. n=number of animals tested.

[2] = target: T1, bovine milk xanthine oxidase (Bos taurus, UniProt P80457); experiment: Capacity to sustain oxidation of xanthine by xanthine oxidase in the absence of oxygen, spectrophotometric; format: biochemical; parameters: host or cells: bovine milk
Method: Capacities of a series of hydroxyguanidine to sustain the oxidation of xanthine by xanthine oxidase in the absence of oxygen. The capacities of various hydroxyguanidines to sustain the oxidation of xanthine was assayed by using a spectrophotometric method. In this method bovine milk xanthine oxidase was injected to a Helma® sealable cuvette for anaerobic application thereby creating 1 ml of a reaction mixture that contained reagents as follows: 50 μM of a hydroxyguanidine, 50 μM xanthine, 0.05 units/ml bovine milk xanthine oxidase, 50 mM Tris and 1.5 mM EDTA; the pH of the reaction mixture being 7.5, and the temperature 20° C. Anaerobic conditions were assured by pre-gassing all solutions used for 5-10 min, with nitrogen. The rate of formation of uric acid was monitored spectrophotometrically by measuring the increase in absorbance at 295 nm (the absorption maximum for uric acid) at intervals. The relative capacities of the hydroxyguanidines to sustain oxidation of xanthine were estimated from the derivative of the initial linear phase of the curves. To obtain blank readings an equal volume of the solvent of the hydroxyguanidine (water) was added to the reaction mixture in separate experiments and the initial rate of absorbance change was substracted from the rate readings of the tested hydroxyguanidine.
Exemplary initial rates for the rate of the support of the oxidation of xanthine obtained by assaying the exemplary hydroxyguanidines listed above by the method in the present example are furthermore given in Table 2: […]
Target sequence in this assay (P80457 whole entry): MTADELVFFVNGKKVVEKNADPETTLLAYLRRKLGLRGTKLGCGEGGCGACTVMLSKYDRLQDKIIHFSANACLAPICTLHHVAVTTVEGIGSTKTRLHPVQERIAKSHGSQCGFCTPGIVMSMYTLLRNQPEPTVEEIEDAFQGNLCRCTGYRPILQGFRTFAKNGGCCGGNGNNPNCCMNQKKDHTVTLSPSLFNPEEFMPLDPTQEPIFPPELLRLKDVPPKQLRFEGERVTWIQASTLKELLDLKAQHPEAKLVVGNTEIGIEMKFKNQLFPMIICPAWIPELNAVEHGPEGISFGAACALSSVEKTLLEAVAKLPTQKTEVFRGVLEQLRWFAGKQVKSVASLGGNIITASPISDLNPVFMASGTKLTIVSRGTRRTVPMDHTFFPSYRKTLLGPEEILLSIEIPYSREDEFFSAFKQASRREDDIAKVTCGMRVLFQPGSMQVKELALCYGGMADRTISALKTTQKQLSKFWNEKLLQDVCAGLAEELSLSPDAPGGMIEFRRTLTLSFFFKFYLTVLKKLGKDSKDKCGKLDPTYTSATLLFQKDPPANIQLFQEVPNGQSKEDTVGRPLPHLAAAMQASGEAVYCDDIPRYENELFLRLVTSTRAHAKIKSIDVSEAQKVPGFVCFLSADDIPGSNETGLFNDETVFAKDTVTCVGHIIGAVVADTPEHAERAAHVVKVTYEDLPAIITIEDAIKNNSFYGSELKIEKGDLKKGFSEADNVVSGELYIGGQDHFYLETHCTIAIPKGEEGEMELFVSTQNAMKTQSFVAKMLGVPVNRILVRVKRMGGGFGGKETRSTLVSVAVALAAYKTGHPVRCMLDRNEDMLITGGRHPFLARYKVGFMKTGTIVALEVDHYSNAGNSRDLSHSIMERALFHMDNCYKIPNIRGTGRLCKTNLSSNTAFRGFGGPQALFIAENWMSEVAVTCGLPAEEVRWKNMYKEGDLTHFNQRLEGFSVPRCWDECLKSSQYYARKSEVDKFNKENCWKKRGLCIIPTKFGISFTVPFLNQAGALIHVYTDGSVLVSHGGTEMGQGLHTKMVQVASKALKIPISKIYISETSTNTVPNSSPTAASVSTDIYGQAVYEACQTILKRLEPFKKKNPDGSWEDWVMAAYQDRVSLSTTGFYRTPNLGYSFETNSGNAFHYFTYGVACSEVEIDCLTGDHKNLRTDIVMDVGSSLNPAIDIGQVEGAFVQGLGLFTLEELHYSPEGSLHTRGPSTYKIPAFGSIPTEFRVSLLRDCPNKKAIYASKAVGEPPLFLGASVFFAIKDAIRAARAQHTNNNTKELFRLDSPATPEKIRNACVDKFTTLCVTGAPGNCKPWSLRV

[3] = target: T1, bovine milk xanthine oxidase; settings: 20 μM allopurinol, 100 μM xanthine, 0.004 units/ml xanthine oxidase
Target sequence in this assay (P80457 2-1332): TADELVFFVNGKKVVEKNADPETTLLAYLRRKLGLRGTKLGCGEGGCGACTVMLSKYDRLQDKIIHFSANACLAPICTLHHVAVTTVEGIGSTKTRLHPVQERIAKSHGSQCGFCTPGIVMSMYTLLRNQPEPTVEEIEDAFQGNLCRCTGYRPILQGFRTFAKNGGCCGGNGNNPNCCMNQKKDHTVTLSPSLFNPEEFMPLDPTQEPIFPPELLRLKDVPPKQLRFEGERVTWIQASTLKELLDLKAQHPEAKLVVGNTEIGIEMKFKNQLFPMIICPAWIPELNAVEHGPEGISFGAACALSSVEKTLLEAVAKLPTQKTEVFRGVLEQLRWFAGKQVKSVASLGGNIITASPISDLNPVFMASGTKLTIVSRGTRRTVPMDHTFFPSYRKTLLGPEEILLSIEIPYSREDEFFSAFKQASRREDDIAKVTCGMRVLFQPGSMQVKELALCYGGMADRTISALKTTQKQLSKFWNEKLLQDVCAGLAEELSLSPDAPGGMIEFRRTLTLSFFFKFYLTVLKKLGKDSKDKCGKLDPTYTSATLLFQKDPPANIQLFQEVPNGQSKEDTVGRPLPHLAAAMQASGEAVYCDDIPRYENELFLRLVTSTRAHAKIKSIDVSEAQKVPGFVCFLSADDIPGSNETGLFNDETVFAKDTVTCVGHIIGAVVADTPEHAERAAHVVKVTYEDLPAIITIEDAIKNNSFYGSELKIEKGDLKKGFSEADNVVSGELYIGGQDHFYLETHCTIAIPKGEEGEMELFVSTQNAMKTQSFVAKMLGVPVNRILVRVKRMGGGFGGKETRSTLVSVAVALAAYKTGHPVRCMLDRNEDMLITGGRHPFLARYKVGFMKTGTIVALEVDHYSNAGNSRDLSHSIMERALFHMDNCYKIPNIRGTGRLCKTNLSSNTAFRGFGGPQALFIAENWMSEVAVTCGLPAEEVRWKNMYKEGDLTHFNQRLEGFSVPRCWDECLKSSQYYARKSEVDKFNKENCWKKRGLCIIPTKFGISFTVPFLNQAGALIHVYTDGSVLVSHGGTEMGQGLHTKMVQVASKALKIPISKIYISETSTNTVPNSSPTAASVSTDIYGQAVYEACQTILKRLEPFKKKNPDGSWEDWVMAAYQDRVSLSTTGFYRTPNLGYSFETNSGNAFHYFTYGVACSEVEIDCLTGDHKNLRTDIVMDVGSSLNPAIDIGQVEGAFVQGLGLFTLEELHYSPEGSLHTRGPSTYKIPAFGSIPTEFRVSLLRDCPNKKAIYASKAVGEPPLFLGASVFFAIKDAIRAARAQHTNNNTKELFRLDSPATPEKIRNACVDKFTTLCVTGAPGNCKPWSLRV
Method: Capacity of allopurinol to inhibit the reduction of hydroxyguanidines by xanthine oxidase. […] In these tests varying amounts of guanoxabenz was added to assays yielding 150 μl final volumes and containing final concentrations 0.004 units/ml of bovine milk xanthine oxidase (Sigma, St. Louis, MO., USA), 100 μM xanthine, 20 μM allopurinol, 50 pM α2-adrenoceptors (in HT29 cell membranes), 33 mM Tris HCl, 1 mM EDTA, pH 7.5, and incubating for 1 hour at 25° C.

[4] = 1 mg/kg i.v. 10 min before occlusion
[5] = 3 mg/kg i.v. 10 min before occlusion

## COc1ccc(C=NNC(=N)NO)c(Cl)c1OC [PR5, N-(3,4-Dimethoxy-2-chlorobenzylideneamino)-N′-hydroxyguanidine tosylate]
Rat spleen tissue; 0.5 mM PR5, anaerobic (argon), 60 min, 37° C.
  uric acid in original incubation medium: 285.5 µmol/L
Rat spleen tissue; 0.5 mM PR5, compared with aerobic control
  formation of uric acid under the anaerobic conditions, in words: restored completely to that of the aerobic control
[1]; 1 mg/kg i.v.
  Mortality Insidence (%): 14%
  Mortality Insidence (number of animals): 2
  Ventricular fibrilation Insidence (%): 57%
  Ventricular fibrilation Insidence (number of animals): 8
  Ventricular fibrilation Duration: 34 ± 9 s
  Ventricular tachycardia Duration: 61 ± 11 s
[1]; [4]
  Ventricular tachycardia Insidence (%): 79%
  Ventricular tachycardia Insidence (number of animals): 11
[1]; 3 mg/kg i.v.
  Mortality Insidence (%): 0 (0)* %
  Mortality Insidence (number of animals): 0 (0)*
  Ventricular fibrilation Insidence (%): 43%
  Ventricular fibrilation Insidence (number of animals): 6
  Ventricular fibrilation Duration (s): 20 ± 7* s
  Ventricular tachycardia Duration (s): 38 ± 7* s
[1]; [5]
  Ventricular tachycardia Insidence (%): 64%
  Ventricular tachycardia Insidence (number of animals): 9
[1]; 10 mg/kg
  Mortality Insidence (%): 7%
  Mortality Insidence (number of animals): 1
  Ventricular fibrilation Insidence (%): 36%
  Ventricular fibrilation Insidence (number of animals): 5
  Ventricular tachycardia Insidence (%): 57%
  Ventricular tachycardia Insidence (number of animals): 8
  Ventricular fibrilation Duration (s): 17 ± 5* s
  Ventricular tachycardia Duration (s): 34 ± 7* s
[1]
  effect on incidence and duration of ventricular tachycardias and fibrillations and on mortality, in words: significant decrease
[2]; 50 μM hydroxyguanidine, 50 μM xanthine, 0.05 units/ml xanthine oxidase, anaerobic, pH 7.5, 20° C., blank subtracted
  V = 1000 × (Δabs 295 nm) min^−1 (initial rate of the support of the oxidation of xanthine): 96 1000 × (Δabs 295 nm) min^−1
[2]; as disclosed in Example 7
  activity / capacity to undergo reduction (reaction A), in words: high activity

## Oc1ncnc2[nH]ncc12 [Allopurinol, 1H-pyrazolo[3,4-d]pyrimidin-4ol, reference compound]
[3]
  decrease in the apparent affinity of guanoxabenz on addition of allopurinol: about 24 fold
[1]; 10 mg/kg
  Mortality Insidence (%): 7%
  Mortality Insidence (number of animals): 1
  Ventricular fibrilation Insidence (%): 50%
  Ventricular fibrilation Insidence (number of animals): 7
  Ventricular tachycardia Insidence (%): 64%
  Ventricular tachycardia Insidence (number of animals): 9
  Ventricular fibrilation Duration: 30 ± 10 s
  Ventricular tachycardia Duration: 59 ± 12 s
[1]
  effect on incidence and duration of ventricular tachycardias and fibrillations and on mortality, in words: reduces these indices, although to a lesser extent than 3-10 mg/kg of PR5

— patent US6599943B1, “Use of hydroxyguanidines” (WaPharm AB, priority 1996, dated 2003)
